Entries after “also recorded” stand apart in the source; their conditions may differ.

In assay [1] the test system is CLN3^Δex7/8 microglia. Briefly: Intracellular cAMP in primary microglia. Type of assay: cell-based, mouse. To be noted: rolipram 10 μM in FIG. 23, 24 hours post-treatment. As for the experimental part:
FIG. 23. CLN3^Δex7/8 microglia display reduced intracellular cAMP constitutively, which is enhanced by the PDE-4 inhibitors. Primary microglia were isolated from the brains of CLN3 WT or CLN3 mutant mice, whereupon cells were pre-treated with the phosphodiesterase-4 inhibitor rolipram (Rol; 10 μM) for 1 hour followed by a combination of molecules known to be elevated in the JNCL brain (20 μM ceramide+neuron lysates) for 24 hours. Intracellular cAMP levels were determined at 24 hours post-treatment (*, p<0.05).

Assay [2] relates to CLN3^Δex7/8 microglia. Kind of assay: IL-1β and TNF-α production by primary microglia (ELISA). It is filed as cell-based, mouse. As to conditions: 1 hour pre-treatment, then 20 μM ceramide+neuron lysates for 24 hours, CLN3 mutant microglia. As to the method: (§1) FIG. 21. PDE-4 inhibitors attenuate IL-1β and TNF-α production in CLN3^Δex7/8 microglia. Primary microglia were isolated from the brains of CLN3 WT or CLN3 mutant mice, whereupon cells were pre-treated with various concentrations of the phosphodiesterase-4 inhibitor propentofylline (PPF) for 1 hour followed by a combination of molecules known to be elevated in the JNCL brain (20 μM ceramide+neuron lysates) for 24 hours. Conditioned medium was collected at 24 hours post-treatment and IL-1β and TNF-α expression was determined by ELISA. **, p<0.01 for WT versus CLN3 mutant microglia; #, p<0.05; ##, p<0.01; ###, p<0.001 for CLN3 mutant microglia treated with PPF versus vehicle control.
as §1, with “22.” for “21.”, “rolipram (Rol)” for “propentofylline (PPF)”, “p<0.05;” for “p<0.05; ##, p<0.01;”, “Rol” for “PPF”
FIG. 24. PDE-4 inhibitors attenuate TNF-α production in CLN3^Δex7/8 microglia. Primary microglia were isolated from the brains of CLN3 WT or CLN3 mutant mice, whereupon cells were pre-treated with various concentrations of the phosphodiesterase-4 inhibitor roflumilast (Rof) for 1 hour followed by a combination of molecules known to be elevated in the JNCL brain (20 μM ceramide+neuron lysates) for 24 hours. Conditioned medium was collected at 24 hours post-treatment and TNF-α expression was determined by ELISA. **, p<0.01 for WT versus CLN3 mutant microglia.
In these experiments, primary microglia are isolated from the brains of CLN3^Δex7/8 and WT mice^8,25-27. Microglia are exposed to previously optimized concentrations of glutamate (50 μM), ATP (5 mM), ceramide (20-100 μM), neuronal lysate (1:2 or 1:5 dilution), or LPS+ATP as a positive control (100 ng/ml and 5 mM, respectively) for 24 hours, whereupon interleukin-1β (IL-1β) and tumor necrosis factor-α (TNF-α) expression are quantitated by ELISA. These cytokines were selected for analysis because they have been directly implicated in contributing to microglia-induced neuronal cell death^14,28 and also because they intersect with oxidative pathways described herein. […] In addition, CLN3 loss is examined to determine if the loss augments caspase-1 activity, a key inflammasome component that senses oxidative stress and lysosomal damage, resulting in IL-1β cleavage and secretion by microglia^8. Here, CLN3^Δex7/8 and WT microglia are exposed to the same stimuli described above, followed by incubation with the FLICA reagent (Immunochemistry Technologies LLC), a caspase-1 substrate that emits fluorescence when cleaved by the active enzyme^29. […] Indeed, studies support this expectation because caspase-1 activity was elevated in CLN3^Δex7/8 microglia compared to WT cells (FIG. 3).

The next assay deals with astrocytes. To be noted: cited from earlier work.

On to `COc1ccc(C2CNC(=O)C2)cc1OC1CCCC1` (stereo not shown) [rolipram], for which the “Intracellular cAMP levels” value in the assay with CLN3^Δex7/8 microglia [1] was “enhanced; also recorded: increased”. Moreover, in the assay on CLN3^Δex7/8 microglia [2], the IL-1β production result is “attenuate; also recorded: significantly reduced IL-1β release” and the TNF-α production result is recorded as “attenuate”.
Consider `CCCn1cnc2c1c(=O)n(CCCCC(C)=O)c(=O)n2C` [propentofylline], for which the “Intracellular cAMP levels” value in the assay on CLN3^Δex7/8 microglia [1] is listed as “increased”. For the same compound, the “glutamate transporter expression in astrocytes” value in the assay on astrocytes is “increase glutamate transporter expression in astrocytes”. Further, the IL-1β production result in the assay with CLN3^Δex7/8 microglia [2] was “attenuate”; with CLN3^Δex7/8 microglia [2] (listed as PPF) it was “significantly reduced IL-1β release”. Besides, in the assay on CLN3^Δex7/8 microglia [2], the TNF-α production result is listed as “attenuate”.
In the case of `O=C(Nc1c(Cl)cncc1Cl)c1ccc(OC(F)F)c(OCC2CC2)c1` [roflumilast], in the assay on CLN3^Δex7/8 microglia [2], the IL-1β production result is “inhibit” and the TNF-α production result is listed as “attenuate”.

The record behind these values is patent US9457030B2, “Compositions and methods for the treatment of juvenile neuronal ceroid lipofuscinosis and related disorders” (BOARD OF REGENTS OF THE UNIVERSITY OF NEBRASKA, priority 2012, dated 2016).
